Counter-ions that a name gives are not always drawn. Like-named read-outs stand apart in the source and are kept apart here.
Tests used:
5-HT1A receptors = target: T1, 5-HT1A receptors (Rattus norvegicus, UniProt P19327); test: Inhibition of 3H-8-OH-DPAT binding to serotonin 5-HT1A receptors in rat brain in vitro; conditions: 3H-8-OH-DPAT 1 nM; for IC50: membranes from rat brain minus cerebellum, read-out: 3H 8-OH DPAT (5-HT1A) binding, IC50
T1 construct: 5-HT1A receptors in membranes from rat brain minus cerebellum; from tissue; host or cells: rat brain minus cerebellum, membranes
T1 sequence (P19327 1-422): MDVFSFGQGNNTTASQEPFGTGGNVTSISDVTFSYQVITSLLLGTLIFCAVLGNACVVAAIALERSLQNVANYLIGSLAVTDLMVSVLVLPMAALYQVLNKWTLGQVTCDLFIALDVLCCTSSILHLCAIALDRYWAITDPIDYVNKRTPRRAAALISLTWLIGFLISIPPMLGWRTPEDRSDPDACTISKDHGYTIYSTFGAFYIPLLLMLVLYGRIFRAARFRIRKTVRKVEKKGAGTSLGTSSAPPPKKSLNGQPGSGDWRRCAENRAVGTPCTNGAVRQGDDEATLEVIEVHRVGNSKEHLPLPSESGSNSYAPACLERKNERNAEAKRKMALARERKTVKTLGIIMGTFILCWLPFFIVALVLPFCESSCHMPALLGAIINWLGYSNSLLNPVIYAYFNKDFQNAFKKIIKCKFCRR
Experimental: By this method the inhibition by drugs of the binding of the 5-HT1A agonist ^3H-8-OH-DPAT (1 nM) to 5-HT1A receptors in membranes from rat brain minus cerebellum is determined in vitro . Accordingly, this is a test for affinity for the 5-HT1A receptor. The test is performed as described by Hyttel et al., Drug. Dev. Res., 1988, 15, 389-404.

5-HT2A receptors = target: T2, 5-HT2A receptors (Rattus norvegicus, UniProt P14842); test: Inhibition of 3H-Ketanserin binding to 5-HT2 receptors in rat cortex in vitro
T2 construct: 5-HT2A receptors in membranes from rat is determined in vitro; from tissue; host or cells: rat cortex membranes
Experimental: Inhibition of ^3H-Ketanserin Binding to 5-HT2 Receptors in Rat Cortex in vitro.
By this method the inhibition by drugs of the binding of ^3H-Ketanserin (0.5 nM) to 5-HT2A receptors in membranes from rat is determined in vitro .

[1] = 3H-Ketanserin 0.5 nM, membranes from rat cortex, read-out: 3H Ketanserin (5-HT2A) binding, IC50

T2 sequence (P14842 whole entry): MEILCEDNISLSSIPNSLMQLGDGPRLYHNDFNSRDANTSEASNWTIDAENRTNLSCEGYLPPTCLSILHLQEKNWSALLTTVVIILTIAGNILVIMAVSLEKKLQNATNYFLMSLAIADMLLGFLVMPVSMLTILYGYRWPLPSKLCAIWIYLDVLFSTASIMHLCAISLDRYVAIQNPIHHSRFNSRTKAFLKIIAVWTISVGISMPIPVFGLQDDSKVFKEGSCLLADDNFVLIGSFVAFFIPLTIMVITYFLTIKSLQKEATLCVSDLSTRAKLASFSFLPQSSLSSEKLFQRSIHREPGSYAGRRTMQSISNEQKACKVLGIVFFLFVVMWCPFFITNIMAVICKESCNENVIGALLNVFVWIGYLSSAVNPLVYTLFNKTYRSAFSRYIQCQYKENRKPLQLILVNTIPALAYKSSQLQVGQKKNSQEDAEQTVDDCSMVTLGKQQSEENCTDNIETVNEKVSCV

SMILES | melting point | IC50 (5-HT1A receptors) | IC50 (5-HT2A receptors; [1]) | also measured
CC(=O)Nc1ccc2c(c1)C(CN1CCC(n3ccc4cc(Cl)ccc43)CC1)CC2 (stereo not drawn) | 189 to 191 °C |  |  | 
Nc1ccc2c(c1)C(CN1CC=C(c3ccc(F)cc3)CC1)CC2 (stereo not drawn) | 78 to 84 °C |  |  | 
CCOC(=O)Nc1ccc2c(c1)C(CN1CCC(c3ccc(F)cc3)CC1)CC2 (stereo not drawn) (as salt: fumarate) [Compound 4l, 1-(6-Ethyloxycarbonylaminoindan-1-ylmethyl)-4-(4-fluorophenyl)piperidine] | 191 to 193 °C |  |  | 
CNC(=S)Nc1ccc2c(c1)C(CN1CCC(c3ccc(F)cc3)CC1)CC2 (stereo not drawn) (as salt: fumarate) [Compound 5c, 4-(4-Fluorophenyl)-1-(6-methylaminothiocarbonylaminoindan-1-ylmethyl)piperidine] | 181 to 183 °C |  |  | 
Nc1ccc2c(c1)C(CN1CCC(c3ccc(F)cc3)CC1)CC2 (stereo not drawn) (as salt: hydrochloride) [Compound 2a] | 198 to 201 °C |  |  | 
CC(=O)Nc1ccc2c(c1)C(CN1CCN(c3ccccc3Cl)CC1)CC2 (stereo not drawn) (as salt: hydrochloride) [Compound 4f, 1-(6-Acetylaminoindan-1-ylmethyl)-4-(2-chlorophenyl)piperazine] | 195 to 203 °C |  |  | 
CC(=O)Nc1ccc2c(c1)C(CN1CC=C(c3ccc(Cl)cc3)CC1)CC2 (stereo not drawn) (as salt: oxalate) | 223 to 226 °C |  |  | 
CC(=O)Nc1ccc2c(c1)C(CN1CCC(O)(c3ccc(Cl)c(C(F)(F)F)c3)CC1)CC2 (stereo not drawn) (as salt: oxalate) | 163 to 165 °C |  |  | 
CC(=O)Nc1ccc2c(c1)C(CN1CC=C(c3c[nH]c4cc(Cl)ccc34)CC1)CC2 (stereo not drawn) (as salt: oxalate) (hydrate or solvate) [Compound 11e, 3-[1-(6-Acetylaminoindan-1-ylmethyl)-1,2,3,6-tetrahydropyridin-4-yl]-6-chloro-1H-indole] | 151 to 164 °C |  |  | 
COc1ccccc1N1CCN(CC2CCc3ccc(NC(C)=O)cc32)CC1 (stereo not drawn) (as salt: oxalate) [Compound 4g, 1-(6-Acetylaminoindan-1-ylmethyl)-4-(2-methoxyphenyl)piperazine] | 210 to 213 °C |  |  | 
CS(=O)(=O)Nc1ccc2c(c1)C(CN1CC=C(c3ccc(Cl)cc3)CC1)CC2 (stereo not drawn) (as salt: oxalate) [Compound 4m, 4-(4-Chlorophenyl)-1-(6-methansulphonylaminoindan-1-ylmethyl)-1,2,3,6-tetrahydropyperidine] | 176 to 178 °C |  |  | 
CNC(=O)Nc1ccc2c(c1)C(CN1CCN(c3ccc4c(c3)OCO4)CC1)CC2 (stereo not drawn) (as salt: oxalate) [Compound 5d, 1-(6-Methylaminocarbonylaminoindan-1-ylmethyl)-4-(3,4-methylendioxyphenyl)piperazine] | 132 to 133 °C |  |  | 
CC(=O)Nc1ccc2c(c1)C(CN1CC=C(c3c[nH]c4ccc(Cl)cc34)CC1)CS2 (stereo not drawn) (as salt: oxalate) [Compound 11b, 3-[1-(5-Acetylamino-2,3-dihydrobenzothiophen-3-ylmethyl)-1,2,3,6-tetrahydropyridin-4-yl]-5-chloro-1H-indole] | 214 to 216 °C |  |  | 
CC(=O)Nc1ccc2c(c1)C(CN1CCC(c3c[nH]c4ccc(F)cc34)CC1)CC2 (stereo not drawn) (as salt: oxalate) [Compound 11c, 3-[1-(6-Acetylaminoindan-1-ylmethyl)piperidin-4-yl]-5-fluoro-1H-indole] | 145 to 149 °C |  |  | 
CC(=O)Nc1ccc2c(c1)C(CN1CC=C(c3c[nH]c4ccc(F)cc34)CC1)CS2 (stereo not drawn) (as salt: oxalate) [Compound 11d, 3-[1-(5-Acetylamino-2,3-dihydrobenzothiophen-3-ylmethyl)-1,2,3,6-tetrahydropyridin-4-yl]-5-fluoro-1H-indole] | 155 to 165 °C |  |  | 
CC(=O)Nc1ccc2c(c1)C(CN1CCC(c3c[nH]c4cc(Cl)ccc34)CC1)CC2 (stereo not drawn) (as salt: oxalate) [Compound 11f, 3-[1-(6-Acetylaminoindan-1-ylmethyl)piperidin-4-yl]-6-chloro-1H-indole] | 122 to 130 °C |  |  | 
CC(=O)Nc1ccc2c(c1)C(CN1CC=C(c3c[nH]c4ccc(Cl)cc34)CC1)CC2 (stereo not drawn) (as salt: oxalate) [Compound 11g, 3-[1-(6-Acetylaminoindan-1-ylmethyl)-1,2,3,6-tetrahydropyridin-4-yl]-5-chloro-1H-indole] | 220 to 223 °C |  |  | 

SMILES | melting point | IC50 (5-HT1A receptors) | IC50 (5-HT2A receptors; [1]) | also measured
CC(=O)Nc1ccc2c(c1)C(CN1CCC(c3cn(C)c4cc(Cl)ccc34)CC1)CC2 (stereo not drawn) (as salt: oxalate) [Compound 15b, 3-[1-(6-Acetylaminoindan-1-ylmethyl)piperidin-4-yl]-6-chloro-1-m ethyl-1H-indole] | 202 to 205 °C |  |  | 
CC(=O)Nc1ccc2c(c1)C(CN1CCC(c3ccc(F)cc3)CC1)CC2 (single isomer, unassigned; (+)) [Compound 14a, (+)-1-(6-Acetylaminoindan-1-ylmethyl)-4-(4-fluorophenyl)piperidine] |  | 120 nM | 16 nM | 
Nc1ccc2c(c1)C(CN1CCC(c3ccc(F)cc3)CC1)CC2 (stereo not drawn) [Compound 2a] |  | 480 nM | 2.5 nM | 
Nc1ccc2c(c1)C(CN1CCN(c3ccc(Cl)cc3)CC1)CC2 (stereo not drawn) [Compound 2e, 1-(6-Aminoindan-1-ylmethyl)-4-(4-chlorophenyl)piperazine] | 98 to 109 °C |  |  | 
CC(=O)Nc1ccc2c(c1)C(CN1CCN(c3ccccc3Cl)CC1)CC2 (stereo not drawn) [Compound 4f, 1-(6-Acetylaminoindan-1-ylmethyl)-4-(2-chlorophenyl)piperazine] |  | 84 nM | 65 nM | 
COc1ccccc1N1CCN(CC2CCc3ccc(NC(C)=O)cc32)CC1 (stereo not drawn) [Compound 4g, 1-(6-Acetylaminoindan-1-ylmethyl)-4-(2-methoxyphenyl)piperazine] |  | 31 nM | 280 nM | 
CCOC(=O)Nc1ccc2c(c1)C(CN1CCC(c3ccc(F)cc3)CC1)CC2 (stereo not drawn) [Compound 4l, 1-(6-Ethyloxycarbonylaminoindan-1-ylmethyl)-4-(4-fluorophenyl)piperidine] |  |  | 55 nM | inhibition at 0.1 µM (5-HT1A receptors; read-out: 3H 8-OH DPAT (5-HT1A) binding, % inhibition of binding at 100 nM, at 100 nM, rat brain membranes): 26%
CS(=O)(=O)Nc1ccc2c(c1)C(CN1CC=C(c3ccc(Cl)cc3)CC1)CC2 (stereo not drawn) [Compound 4m, 4-(4-Chlorophenyl)-1-(6-methansulphonylaminoindan-1-ylmethyl)-1,2,3,6-tetrahydropyperidine] |  | 120 nM |  | IC50 (5-HT2A receptors): 2.7 nM
CC(=O)Nc1ccc2c(c1)C(CN1CCN(c3ccc4c(c3)OCO4)CC1)CC2 (stereo not drawn) [Compound 4q, 1-(6-Acetylaminoindan-1-ylmethyl)-4-(3,4-methylenedioxyphenyl)piperazine] | 188 to 189 °C |  |  | 
CNC(=O)Nc1ccc2c(c1)C(CN1CCC(c3ccc(F)cc3)CC1)CC2 (stereo not drawn) [Compound 5a, 4-(4-Fluorophenyl)-1-(6-methylaminocarbonylaminoindan-1-ylmethyl)piperidine] |  | 35 nM | 5.1 nM | 
CNC(=S)Nc1ccc2c(c1)C(CN1CCC(c3ccc(F)cc3)CC1)CC2 (stereo not drawn) [Compound 5c, 4-(4-Fluorophenyl)-1-(6-methylaminothiocarbonylaminoindan-1-ylmethyl)piperidine] |  | > 1000 nM | 3.9 nM | 
CN(C)C(=O)Nc1ccc2c(c1)C(CN1CCC(c3ccc(F)cc3)CC1)CC2 (stereo not drawn) [Compound 6a, 1-(6-Dimethylaminocarbonylaminoindan-1-ylmethyl)-4-(4-fluorophenyl)piperidine] |  | 1200 nM | 9.1 nM | 
NC(=O)Nc1ccc2c(c1)C(CN1CCC(c3ccc(F)cc3)CC1)CC2 (stereo not drawn) [Compound 7a, 1-(6-Aminocarbonylaminoindan-1-ylmethyl)-4-(4-fluorophenyl)piperidine] |  | 13 nM | 2.6 nM | 
CC(=O)Nc1ccc2c(c1)C(CN1CCC(c3c[nH]c4ccc(Cl)cc34)CC1)CS2 (stereo not drawn) [Compound 11a, 3-[1-(5-Acetylamino-2,3-dihydrobenzothiophen-3-ylmethyl)piperidin-4-yl]-5-chloro-1H-indole] |  | 28 nM | 42 nM | 
CC(=O)Nc1ccc2c(c1)C(CN1CC=C(c3c[nH]c4ccc(Cl)cc34)CC1)CS2 (stereo not drawn) [Compound 11b, 3-[1-(5-Acetylamino-2,3-dihydrobenzothiophen-3-ylmethyl)-1,2,3,6-tetrahydropyridin-4-yl]-5-chloro-1H-indole] |  | 21 nM | 44 nM | 
CC(=O)Nc1ccc2c(c1)C(CN1CCC(c3c[nH]c4ccc(F)cc34)CC1)CC2 (stereo not drawn) [Compound 11c, 3-[1-(6-Acetylaminoindan-1-ylmethyl)piperidin-4-yl]-5-fluoro-1H-indole] |  | 16 nM | 15 nM | 
CC(=O)Nc1ccc2c(c1)C(CN1CC=C(c3c[nH]c4ccc(F)cc34)CC1)CS2 (stereo not drawn) [Compound 11d, 3-[1-(5-Acetylamino-2,3-dihydrobenzothiophen-3-ylmethyl)-1,2,3,6-tetrahydropyridin-4-yl]-5-fluoro-1H-indole] |  | 29 nM | 15 nM | 

Source: patent publication US6767907B2, “4-aryl-1-(indanmethyl dihydrobenzofuranmethyl or dihydrobenzothiophenemethyl) piperidines tetrahydropyridines or piperazines” (H. Lundbeck A/S, priority 1994, dated 2004)
